From article PMC6218659, “Structures of DPAGT1 Explain Glycosylation Disease Mechanisms and Advance TB Antibiotic Design” (Cell, 2018)
Numbering of substitutions follows the chain as printed. In names and notes the source's numbering stands.

Assays:
[1] = target: T1, DPAGT1 Arg301Cys (Homo sapiens, UniProt Q9H3H5, R301C); experiment: Thermostability assay (label free differential scanning fluorimetry); type: binding, H. sapiens; settings: 50 μM compound
T1 construct: combined with the LIC-adapted primers to amplify the complete DPAGT1 gene, including the desired mutations; 6xHis purification tag with TEV site (N, cleaved yes); made in house; host or cells: Spodoptera frugiperda Sf9 insect cells (baculovirus)
T1 sequence (Q9H3H5 1-408 R301C): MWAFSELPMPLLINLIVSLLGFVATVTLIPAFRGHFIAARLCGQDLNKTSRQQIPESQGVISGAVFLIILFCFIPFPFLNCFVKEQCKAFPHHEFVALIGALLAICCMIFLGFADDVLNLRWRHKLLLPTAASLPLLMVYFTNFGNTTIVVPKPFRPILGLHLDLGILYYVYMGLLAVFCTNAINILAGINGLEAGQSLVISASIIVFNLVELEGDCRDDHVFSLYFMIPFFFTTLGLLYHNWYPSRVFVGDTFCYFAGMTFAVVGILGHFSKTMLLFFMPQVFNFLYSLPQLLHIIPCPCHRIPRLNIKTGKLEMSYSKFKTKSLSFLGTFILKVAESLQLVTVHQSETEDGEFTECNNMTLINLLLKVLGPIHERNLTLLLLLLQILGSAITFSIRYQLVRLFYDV
Procedure: (§1) Samples with a volume of 40 μl were prepared containing 0.5 mg/ml protein and 50 μM compound or 5% DMSO in GFB. A glass capillary was dipped into each sample, with the capillary held horizontally to ensure that the capillary was full of the sample. The capillaries were placed on the capillary holder on the Nanotemper Prometheus. Technical triplicates of each sample were prepared, and each experiment was conducted with biological triplicates of each protein. PR.ThermControl software was used to run the experiment and analyse the data. A melting curve from 20 °C – 95 °C at 5 °C/min was performed. The minimum of the first derivative of the 330/350nm ratio was used to determine the Tm1/2.

[2] = target: T2, DPAGT1 Arg301His (Homo sapiens, UniProt Q9H3H5, R301H); experiment: as above; type: binding, H. sapiens; settings: 50 μM compound
T2 construct: combined with the LIC-adapted primers to amplify the complete DPAGT1 gene, including the desired mutations; 6xHis purification tag with TEV site (N, cleaved yes); made in house; host or cells: Spodoptera frugiperda Sf9 insect cells (baculovirus)
T2 sequence (Q9H3H5 1-408 R301H): T1 sequence (Q9H3H5 1-408 R301C) with C301H
Procedure: as §1

[3] = target: T3, DPAGT1 Leu168Pro (Homo sapiens, UniProt Q9H3H5, L168P); experiment: as above; type: binding, H. sapiens; settings: 50 μM compound
T3 construct: combined with the LIC-adapted primers to amplify the complete DPAGT1 gene, including the desired mutations; 6xHis purification tag with TEV site (N, cleaved yes); made in house; host or cells: Spodoptera frugiperda Sf9 insect cells (baculovirus)
T3 sequence (Q9H3H5 1-408 L168P): T1 sequence (Q9H3H5 1-408 R301C) with L168P, C301R
Procedure: as §1

[4] = target: T4, DPAGT1 Tyr170Cys (Homo sapiens, UniProt Q9H3H5, Y170C); experiment: as above; type: binding, H. sapiens; settings: 50 μM compound
T4 construct: combined with the LIC-adapted primers to amplify the complete DPAGT1 gene, including the desired mutations; 6xHis purification tag with TEV site (N, cleaved yes); made in house; host or cells: Spodoptera frugiperda Sf9 insect cells (baculovirus)
T4 sequence (Q9H3H5 1-408 Y170C): T1 sequence (Q9H3H5 1-408 R301C) with Y170C, C301R
Procedure: as §1

[5] = target: T5, DPAGT1 Val264Gly (Homo sapiens, UniProt Q9H3H5, V264G); experiment: as above; type: binding, H. sapiens; settings: 50 μM compound
T5 construct: H. sapiens DPAGT1 (1-408, Val264Gly, N-terminal 6 x HIS tag, TEV cleavage site); 6xHis purification tag with TEV site (N, cleaved yes); made in house; host or cells: Spodoptera frugiperda Sf9 insect cells (baculovirus)
T5 sequence (Q9H3H5 1-408 V264G): T1 sequence (Q9H3H5 1-408 R301C) with V264G, C301R
Procedure: as §1

[6] = target: T6, DPAGT1 WT (Homo sapiens, UniProt Q9H3H5); experiment: as above; type: binding, H. sapiens; settings: 50 μM compound
T6 construct: H. sapiens DPAGT1 (1-408, N-terminal 6 x HIS tag, TEV cleavage site); 6xHis purification tag with TEV site (N, cleaved yes); made in house; host or cells: Spodoptera frugiperda Sf9 insect cells (baculovirus)
T6 sequence (Q9H3H5 1-408): T1 sequence (Q9H3H5 1-408 R301C) with C301R
Procedure: as §1

[7] = target: T7, DPAGT1 (Homo sapiens, UniProt Q9H3H5); experiment: Radiolabeled substrate enzyme activity assay; type: biochemical, H. sapiens
T7 construct: H. sapiens DPAGT1 (1-408, N-terminal 6 x HIS tag, TEV cleavage site); 6xHis purification tag with TEV site (N, cleaved yes); made in house; host or cells: Spodoptera frugiperda Sf9 insect cells (baculovirus)
T7 sequence (Q9H3H5 1-408): T1 sequence (Q9H3H5 1-408 R301C) with C301R
Procedure: 2 μl of 2 μM DPAGT1 WT or mutant proteins in GFB buffer supplemented with 5mM extra MgCl2, 1% OGNG/CHS/cardiolipin and dolichyl monophosphate was combined with 2 μl of UDP-N-acetyl [1-14C] […] The reaction was terminated by the addition of 6 μl of 100% methanol and immediately transferred onto ice. 1 μl of sample was spotted onto a silica coated TLC plate in triplicate and run with a mobile phase consisting of chloroform, methanol, and water at a 65:25:4 ratio respectively. After the run, the TLC plate was dried thoroughly, wrapped in cling film, incubated with a phosphor imaging substrate for 4 days, then phosphor imaged using a Biorad. The pixel density of the spots corresponding to the hydrophobic product was divided by combined pixel density of the product and the substrate and multiplied by the known concentration of substrate added to ascertain the amount of product formed.

[8] = target: the molecule itself; experiment: crystal structure; space group P6(5)22, one DPAGT1 monomer in the asymmetric unit; dimer formed through a crystallographic 2-fold axis; apo WT, apo Val264Gly and Val264Gly complexes with UDP-GlcNAc/Mg2+ or tunicamycin
[9] = target: the molecule itself; experiment: native MS; purified DPAGT1 diluted to 10 uM, buffer exchanged into 200 mM ammonium acetate, 0.16% OGNG; Q Exactive modified for high-mass transmission, positive ion mode

Molecule: CC(=O)NC1C(OP(=O)(O)OP(=O)(O)OCC2OC(n3ccc(=O)[nH]c3=O)C(O)C2O)OC(CO)C(O)C1O (centres unmarked) [UDP-GlcNAc, UDP-N-acetyl glucosamine]
- Thermostability (Tm1/2) with added compound [1]: 52.5±0.6 °C
- Thermostability (Tm1/2) with added compound [2]: 52.4±1.0 °C
- Thermostability (Tm1/2) with added compound [3]: 53.8±1.1 °C
- Thermostability (Tm1/2) with added compound [4]: 54.0±0.8 °C
- Thermostability (Tm1/2) with added compound [5]: 54.6±0.4 °C
- Thermostability (Tm1/2) with added compound [6]: 55.1±0.4 °C

Molecule: O=c1ccn([C@@H]2O[C@H](COP(=O)(O)O)[C@@H](O)[C@H]2O)c(=O)[nH]1 [UMP]
- effect of adding product on DPAGT1 activity ([7]; product inhibition test): no effect
- Thermostability (Tm1/2) with added compound [1]: 51.4±0.8 °C
- Thermostability (Tm1/2) with added compound [2]: 51.4±0.9 °C
- Thermostability (Tm1/2) with added compound [3]: 50.4±0.6 °C
- Thermostability (Tm1/2) with added compound [4]: 50.7±0.3 °C
- Thermostability (Tm1/2) with added compound [5]: 50.5±0.2 °C
- Thermostability (Tm1/2) with added compound [6]: 51.7±0.2 °C

Molecule: dolichyl phosphate [Dol-P]
- kcat ([7]; WT DPAGT1, non-titrated substrate at 200 μM): 0.00333 ± 0.0002 s⁻¹
- Km ([7]; WT DPAGT1, non-titrated substrate at 200 μM, read-out: apparent Km): 36.3 ± 7.2 µM
- Thermostability (Tm1/2) with added compound [1]: 56.4±0.5 °C
- Thermostability (Tm1/2) with added compound [2]: 56.2±1.2 °C
- Thermostability (Tm1/2) with added compound [3]: 52.5±0.3 °C
- Thermostability (Tm1/2) with added compound [4]: 54.0±1.0 °C
- Thermostability (Tm1/2) with added compound [5]: 57.2±0.2 °C
- Thermostability (Tm1/2) with added compound [6]: 58.5 °C

B1: H. sapiens DPAGT1 (1-408, Val264Gly, N-terminal 6 x HIS tag, TEV cleavage site) (enzyme, human, UniProt Q9H3H5 1-408, looked up)
chain: T1 sequence (Q9H3H5 1-408 R301C) with V264G, C301R
notes: human DPAGT1, residues 1-408, full length, with the missense variant Val264Gly found in some congenital myasthenic syndrome patients; After TEV cleavage an additional N-terminal serine remains (measured mass 46135 Da); Used for the apo, UDP-GlcNAc and tunicamycin crystal structures; also called Val264Gly DPAGT1; V264G variant; source: Sf9 insect cells (baculovirus), purified (OGNG/CHS extraction, …)
- binding result [8]: binds

B2: H. sapiens DPAGT1 (1-408, N-terminal 6 x HIS tag, TEV cleavage site), wild type (enzyme, human, UniProt Q9H3H5 1-408, looked up)
chain: T1 sequence (Q9H3H5 1-408 R301C) with C301R
notes: human dolichyl-phosphate N-acetylglucosamine-phosphotransferase DPAGT1 (E.C. 2.7.8.15), residues 1-408, full-length wild type; After TEV cleavage an additional N-terminal serine remains (measured mass 46177 Da); Integral membrane protein kept in OGNG/CHS/cardiolipin (or DOPG) detergent-lipid buffer; also called WT DPAGT1; GPT; source: Sf9 insect cells (baculovirus), purified (OGNG/CHS extraction, …)
- stoichiometry N [9]: 2
